The values below come from patent US20160143884A1, “USE OF TETRAHYDROINDAZOLYLBENZAMIDE AND TETRAHYDROINDOLYLBENZAMIDE DERIVATIVES FOR THE TREATMENT OF HUMAN IMMUNODEFICIENCY VIRUS (HIV) AND ACQUIRED IMMUNE DEFICIENCY SYNDROME (AIDS)” (Esanex, Inc., priority 2014, published 2016).

The subject of data set [1] is VSVg-pseudotyped NL4-3.Luc.E-R- virus. Nature of the data set: microbe, parasite or virus in culture. It is filed as cell-based, HIV-1. Particulars: Human immunodeficiency virus 1, NL43, SUP-T1, read-out: EC50 of inhibition of HIV replication.
The subject of another data set is Hepatitis B Virus (HBV). Nature of the data set: Anti-HBV assay, real-time qPCR of extracellular HBV DNA in HepG2 2.2.15. It is filed as cell-based. Here is the method: The anti-HBV assay employed real-time qPCR (TaqMan) to directly measure extracellular HBV DNA copy number. HepG2-2.2.15 cells were plated in 96-well microtiter plates. Only the interior wells were utilized to reduce “edge effects” observed during cell culture; the exterior wells were filled with complete medium to help minimize sample evaporation. After 16-24 hours the confluent monolayer of HepG2-2.2.15 cells was washed and the medium replaced with complete medium containing various concentrations of a test compound in triplicate. 3TC was used as positive control, while media alone was added to cells as negative control (virus control, VC). Three days later the culture medium was replaced with fresh medium containing the appropriately diluted drug. Six days following the initial administration of the test compound, the cell culture supernatant collected, treated with pronase and then used in a real-time quantitative TaqMan qPCR assay. The PCR-amplified HBV DNA was detected in real-time by monitoring increases in fluorescence signals that result from the exonucleolytic degradation of a quenched fluorescent probe molecule that hybridizes to the amplified HBV DNA. For each PCR amplification, a standard curve was simultaneously generated using dilutions of purified HBV DNA. Antiviral activity was calculated from the reduction in HBV DNA levels (IC50). CellTiter 96® AQueous One Solution Cell Proliferation Assay kit (Promega) was employed to measure cell viability which was used to calculate cytotoxicity (TC50). The therapeutic index (TI) was calculated as TC50/IC50.
A general note: Real-time PCR tracks product formation cycle by cycle.

A further data set concerns HIV-1Ba-L. Nature of the data set: Anti-HIV efficacy evaluation in fresh human PBMCs (reverse transcriptase activity readout). The class given is cell-based. The protocol:
Anti-HIV Efficacy Evaluation in Fresh Human PBMCs Assay Protocol:
Fresh human PBMCs, seronegative for HIV and HBV, are isolated from screened donors (Biological Specialty Corporation, Colmar, Pa.). Cells are pelleted/washed 2-3 times by low speed centrifugation and re-suspension in PBS to remove contaminating platelets. […] Banded PBMCs are gently aspirated from the resulting interface and subsequently washed 2× with PBS by low speed centrifugation. […] The cells are allowed to incubate for 48-72 hours at 37° C. […] IL-2 is included in the culture medium to maintain the cell division initiated by the PHA mitogenic stimulation. PBMCs are maintained in this medium at a concentration of 1-2×10^6 cells/mL with biweekly medium changes until used in the assay protocol. Cells are kept in culture for a maximum of two weeks before being deemed too old for use in assays and discarded. MDMs are depleted from the culture as the result of adherence to the tissue culture flask.
For the standard PBMC assay, PHA stimulated cells from at least two normal donors are pooled (mixed together), diluted in fresh medium to a final concentration of 1×10^6 cells/mL, and plated in the interior wells of a 96 well round bottom microplate at 50 uL/well (5×10^4 cells/well) in a standard format developed by the Infectious Disease Research department of Southern Research Institute. Pooling (mixing) of mononuclear cells from more than one donor is used to minimize the variability observed between individual donors, which results from quantitative and qualitative differences in HIV infection and overall response to the PHA and IL-2 of primary lymphocyte populations. Each plate contains virus/cell control wells (cells plus virus), experimental wells (drug plus cells plus virus) and compound control wells (drug plus media without cells, necessary for MTS monitoring of cytotoxicity). […] Therefore, infected wells are used in the assessment of both antiviral activity and cytotoxicity. Test drug dilutions are prepared at a 2× concentration in microtiter tubes and 100 μL of each concentration (nine total concentrations) are placed in appropriate wells using the standard format. 50 μL of a predetermined dilution of virus stock is placed in each test well (final MOI˜=0.1). The PBMC cultures are maintained for seven days following infection at 37° C., 5% CO2. After this period, cell-free supernatant samples are collected for analysis of reverse transcriptase activity and/or p24 antigen content. Following removal of supernatant samples, compound cytotoxicity is measured by addition of MTS to the plates for determination of cell viability. Wells are also examined microscopically and any abnormalities are noted.
Reverse Transcriptase Activity Assay Protocol:
Tritiated thymidine triphosphate (^3H-TTP, 80 Ci/mmol, NEN) is received in 1:1 dH2O:Ethanol at 1 mCi/mL. Poly rA:oligo dT template:primer (GE Healthcare) is prepared as a stock solution by combining 150 μL poly rA (20 mg/mL) with 0.5 mL oligo dT (20 units/mL) and 5.35 mL sterile dH2O followed by aliquoting (1.0 mL) and storage at −20° C. The RT reaction buffer is prepared fresh on a daily basis and consists of 125 μL 1.0 M EGTA, 125 μL dH2O, 125 μL 20% Triton X100, 50 μL 1.0 M Tris (pH 7.4), 50 μL 1.0 M DTT, and 40 μL 1.0 M MgCl2. The final reaction mixture is prepared by combining 1 part ^3H-TTP, 4 parts dH2O, 2.5 parts poly rA:oligo dT stock and 2.5 parts reaction buffer. Ten microliters of this reaction mixture is placed in a round bottom microtiter plate and 15 μL of virus containing supernatant is added and mixed. The plate is incubated at 37° C. for 60 minutes. Following incubation, the reaction volume is spotted onto DE81 filter-mats (Wallac), washed 5 times for 5 minutes each in a 5% sodium phosphate buffer or 2×SSC (Life Technologies).

A short description of data set [2]: Cell viability (CellTiter 96 AQueous One) in HepG2 2.2.15. The class given is cell-based. Particulars: human, HepG2-2.2.15 cells, read-out: Cytotoxicity TC50. Here is the method:
The anti-HBV assay employed real-time qPCR (TaqMan) to directly measure extracellular HBV DNA copy number. HepG2-2.2.15 cells were plated in 96-well microtiter plates. Only the interior wells were utilized to reduce “edge effects” observed during cell culture; the exterior wells were filled with complete medium to help minimize sample evaporation. After 16-24 hours the confluent monolayer of HepG2-2.2.15 cells was washed and the medium replaced with complete medium containing various concentrations of a test compound in triplicate. 3TC was used as positive control, while media alone was added to cells as negative control (virus control, VC). Three days later the culture medium was replaced with fresh medium containing the appropriately diluted drug. Six days following the initial administration of the test compound, the cell culture supernatant collected, treated with pronase and then used in a real-time quantitative TaqMan qPCR assay. The PCR-amplified HBV DNA was detected in real-time by monitoring increases in fluorescence signals that result from the exonucleolytic degradation of a quenched fluorescent probe molecule that hybridizes to the amplified HBV DNA. […] Antiviral activity was calculated from the reduction in HBV DNA levels (IC50). […] The therapeutic index (TI) was calculated as TC50/IC50.

Data set [3] concerns single cycle HIV in SupT1 cells.
Method: HIV-integration was evaluated in a cell based assay with ALU-PCR read out. Using single cycle virus (Env-deficient, containing Luc, pseudotyped with VSV-g), SupT1 cells were infected for 36 hours. Cells were treated with DMSO, Raltegravir (integrase inhibitor), 500 nM Compound 9, or Nelfinavir (protease inhibitor). It was expected that Raltegravir should affect both Luc and ALU-PCR data and Nelfinavir should not (downstream of both). Cells were split in half-one part for Luc-assays, and one part for ALU-PCR.
Data set [4] concerns Rev-dependent VLP production. Nature of the data set: Virus like particles (VLP) production in 293T cells, Gag(p24) ELISA. The class given is cell-based. Particulars: 293T cells, 1, 0.1 and 0.01. The text has this:
293T Cells were transfected with a gag-pol-RRE construct. When Rev is present and/or functioning, Gag is produced, forms virus like particles (VLP), and VLP are secreted into the culture supernatant. VLP in the media are quantified using a quantitative Gag(p24) ELISA.

In the case of `CC1(C)CC(=O)c2c(C(F)(F)F)nn(-c3ccc(C(N)=O)c(N[C@H]4CC[C@H](O)CC4)c3)c2C1` [Compound 9, 4-(6,6-Dimethyl-4-oxo-3-trifluoromethyl-4,5,6,7-tetrahydro-indazol-1-yl)-2-(trans-4-hydroxy-cyclohexylamino)-benzamide], the EC50 (as a rule, the concentration needed to bring the measured effect to its halfway point) in data set [1] turned out to be 0.01 µM. Moreover, the “Activity against hepatitis B virus (in words)” value in the data set with Hepatitis B Virus (HBV) was “inactive”. Also, the “Selectivity Index TI (TC50/IC50)” value in the data set with Hepatitis B Virus (HBV) (HBV in HepG2 2.2.15) came out at 0.12; in the data set with HIV-1Ba-L (HIV-1Ba-L in PBMCs, 50%), 1.5. In addition, the 50% inhibitory concentration (IC50) (commonly the concentration that inhibits the measured activity by half) is 0.6 µM in the data set on Hepatitis B Virus (HBV) (Hepatitis B virus, 144 h, HBV in HepG2 2.2.15, six days, read-out: Antiviral Activity IC50 (reduction in HBV DNA levels)) and 0.02 µM in the data set with HIV-1Ba-L (Human immunodeficiency virus 1, PBMC, 168 h, read-out: Antiviral Activity IC50 (50% inhibition of virus replication), HIV-1Ba-L in PBMCs, seven days). For the same compound, the IC90 in the data set with Hepatitis B Virus (HBV) (Hepatitis B virus, HBV in HepG2 2.2.15) was above 2 µM; in the data set on HIV-1Ba-L (Human immunodeficiency virus 1, PBMC, read-out: IC 90% (90% inhibition of virus replication)) it was 0.09 µM. In addition, in the data set on HIV-1Ba-L (HIV-1Ba-L in PBMCs), the “IC 95% (95% inhibition of virus replication)” value came to 0.011 µM. Moreover, the “Selectivity index (TI) 90%” value in the data set with HIV-1Ba-L (HIV-1Ba-L in PBMCs, TC90/IC90) is above 22.1. In the data set on HIV-1Ba-L (HIV-1Ba-L in PBMCs, TC95/IC95), the “Selectivity index (TI) 95%” value is given as above 18.2. Besides, the CC50 at 6 days in data set [2] was 0.073 µM. Besides, the “Integration of HIV-1 viral DNA into host cell” value in data set [3] was “inhibit”. Also, the “Reduction of single cycle HIV” value in data set [3] (500 nM, SupT1 cells infected 36 hours) was “at least 90%”. Also, the “Inhibition of Rev-dependent VLP production” value in data set [4] is “does not appear to robustly inhibit”.
